Data reported in US12576047B2, “Telomerase activating compounds for use in fertility and related applications” (Neuromagen Pharma Ltd, priority 2017, dated 2026).
Entries after “also recorded” stand apart in the source; their conditions may differ.

Legend:
ICR mice = experiment: Sperm count from the epididymis, with or without X-ray radiation; assay type: in vivo, mouse
Method: Toward this end, ICR mice (3 months old) were injected with 6 mg/kg of Compound 79, Compound 68 or Compound 70, or mice were subjected to X-ray radiation (2.5 Gy) followed by immediately injection of the respective compounds. Control mice were untreated or vehicle treated with or without exposure to X-ray radiation. […] Testes were also taken for immunohistochemical and immunofluorescence analysis with various spermatogenesis markers. Epididymis was also taken for sperm count.

[1] = system: Telomerase reverse transcriptase (TERT); experiment: TERT relative mRNA levels by qRT-PCR in granulosa cells; assay type: cell-based, rat; conditions: 50 nM and 200 nM for 6 hours
Method: (§1) Immortalized rat granulosa cells expressing FSH receptor were treated with either pregnant mare serum gonadotropin (PMSG), or the indicated compounds, or both for 6 hours. Protein extracts prepared from these cells served for telomerase activity measurement using a telomere repeat amplification protocol (TRAP) assay.
(§2) Briefly, protein extract incubated with oligonucleotide, which serves as a template for telomerase (TS), for 45 minutes at 30° C. followed by PCR with reverse primer (ACX) and internal control. PCR products were separated on 4.5% agarose gel. RNA extracts were used for cDNA synthesis and quantitative real time PCR with specific primers to Telomerase reverse transcriptase (TERT), Steroidogenic acute regulatory protein (StAr) and β-actin as a reference gene. To measure progesterone levels secreted by the cells, granulosa cells were cultured with or without 1 IU/mL PMSG and DMSO, Compound 79 50 nM or compound 70 50 nM in the presence of 100 nM dexamethasone. After 24 hours progesterone levels cell-culture medium were determined by radioimmunoassay (RIA). For cell proliferation measurement, 1×10^5 cells were seeded in a 96 wells plate with 1 IU/mL PMSG and DMSO, Compound 79 50 nM or Compound 70 50 nM. After 24 hours cells viability was measured by XTT proliferation assay.

sperm = experiment: Sperm head morphology after X-ray radiation; assay type: in vivo, mouse; conditions: X-ray 2.5 Gy, single S.C. injection 6 mg/kg, 12 hours
Method: Three-month old mice were irradiated with X-ray (2.5 Gy) and treated with a single S.C. injection of 6 mg/kg of compound 68 or 70. Mice were sacrificed 12 hours later and sperm were removed from the epididymis and stained with eosin. The number of morphologically defective sperm (head morphology) were quantified and presented as a percentage value of the total sperm count (N=6 mice per group) (FIG. 26A). FIG. 26B provides a light micrograph showing healthy and defective sperm head morphology observed. The arrows labeled 1 and 2 point to defective sperm head morphology, and the arrows labeled 3 and 4 point to healthy sperm head morphology

old mice (16 months old) = experiment: Sperm count and motility in old mice; assay type: in vivo, mouse; conditions: single injection 6 mg/Kg
telomerase = target: T1, telomerase (Rattus norvegicus, UniProt Q673L6); experiment: TRAP assay of telomerase activity in granulosa cells; assay type: cell-based; conditions: 50 nM and 200 nM for 6 hours
T1 construct: Protein extracts prepared from these cells served for telomerase activity measurement; endogenous in cells; host or cells: immortalized rat granulosa cells expressing FSH receptor
T1 sequence (Q673L6 whole entry): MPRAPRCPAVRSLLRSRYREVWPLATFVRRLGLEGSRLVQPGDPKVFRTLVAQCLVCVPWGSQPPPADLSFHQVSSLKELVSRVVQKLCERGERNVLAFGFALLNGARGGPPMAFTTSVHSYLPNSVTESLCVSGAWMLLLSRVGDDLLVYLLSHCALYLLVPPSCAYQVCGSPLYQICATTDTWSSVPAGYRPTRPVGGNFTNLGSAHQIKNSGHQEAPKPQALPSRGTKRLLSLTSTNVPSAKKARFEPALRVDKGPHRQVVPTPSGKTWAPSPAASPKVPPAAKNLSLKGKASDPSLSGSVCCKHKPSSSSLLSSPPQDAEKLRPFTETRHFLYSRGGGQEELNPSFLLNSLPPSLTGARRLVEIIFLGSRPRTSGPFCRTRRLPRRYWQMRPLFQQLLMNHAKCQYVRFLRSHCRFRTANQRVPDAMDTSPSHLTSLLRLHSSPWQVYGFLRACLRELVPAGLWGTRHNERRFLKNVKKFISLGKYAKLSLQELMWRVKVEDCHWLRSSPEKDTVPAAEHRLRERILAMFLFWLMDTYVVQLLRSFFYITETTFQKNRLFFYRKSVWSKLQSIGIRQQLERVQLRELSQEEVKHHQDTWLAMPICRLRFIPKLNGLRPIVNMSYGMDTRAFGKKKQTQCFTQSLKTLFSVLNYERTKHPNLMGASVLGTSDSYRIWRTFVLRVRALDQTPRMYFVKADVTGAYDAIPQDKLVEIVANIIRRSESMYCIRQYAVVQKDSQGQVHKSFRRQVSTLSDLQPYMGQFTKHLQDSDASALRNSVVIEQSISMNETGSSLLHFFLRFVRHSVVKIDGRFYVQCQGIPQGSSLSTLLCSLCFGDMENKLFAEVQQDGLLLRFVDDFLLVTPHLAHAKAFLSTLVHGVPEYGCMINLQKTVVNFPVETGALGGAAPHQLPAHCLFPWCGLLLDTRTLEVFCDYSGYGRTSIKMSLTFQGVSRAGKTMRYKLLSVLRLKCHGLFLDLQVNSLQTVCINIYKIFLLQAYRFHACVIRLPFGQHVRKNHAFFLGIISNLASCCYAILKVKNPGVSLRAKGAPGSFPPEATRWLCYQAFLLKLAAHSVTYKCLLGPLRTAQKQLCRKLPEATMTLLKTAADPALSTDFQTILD
Method: as §1, §2

LH = LH expression by RT-PCR in pituitary gland cells; assay type: cell-based, mouse; conditions: 50 nM, 12 hours, vs untreated
Method: (§3) FIGS. 29A, 29B, 29C and 29D: The embodied compounds affect the expression of gonadotropin hormones in pituitary gland cells. Cells (L T2) derived from the mouse pituitary gland were assessed for their secretion of LH and FSH at 6 (FIGS. 29A and 29B) and 12 hours (FIGS. 29C and 29D) following treatment with the indicated embodied compounds (50 nM). FSH and LH expression was determined by RT-PCR, and quantified from 5 different experiments, as assessed for significance, using the t test, one way ANOVA.

CREM = CREM expression in X-ray irradiated testis; assay type: in vivo, mouse; conditions: X-ray 2.5 Gy then injection, 12 hrs
Method: (§4) Toward this end, ICR mice (3 months old) were injected with 6 mg/kg of Compound 79, Compound 68 or Compound 70, or mice were subjected to X-ray radiation (2.5 Gy) followed by immediately injection of the respective compounds. Control mice were untreated or vehicle treated with or without exposure to X-ray radiation. The testes were removed 12 hrs after treatments and subjected to protein extracts or total RNA preparations for the examination of telomerase activity by TRAP assay, telomerase expression by Western blot and real time PCR. Testes were also taken for immunohistochemical and immunofluorescence analysis with various spermatogenesis markers. Epididymis was also taken for sperm count.

γ-H2AX = γ-H2AX immunofluorescence of testis; assay type: in vivo, mouse; conditions: 12 hrs
Method: as §4

FSH = FSH expression by RT-PCR in pituitary gland cells; assay type: cell-based, mouse; conditions: 50 nM, 6 hours, vs untreated
Method: as §3

ovarian tissue = experiment: Ovarian tissue histopathology following irradiation; assay type: in vivo; conditions: treatment following X-ray irradiation
Description: FIGS. 28A, 28B and 28C: Ovarian tissue histopathology following irradiation (FIG. 28A), followed by treatment with Compound 70 (FIG. 28C) or DMSO carrier (FIG. 28B).

mouse ovary = experiment: Hematoxylin-eosin histology of mouse ovary; assay type: in vivo
Description: The ovaries were weighted; one was taken for protein extraction for measuring telomerase activity by TRAP assay, and the other one for the histological examination using hematoxylin-eosin staining of the ovary and its follicles.
The mice ovaries were removed and fixed with 4% paraformaldehyde overnight, dehydrated in increasing ethanol concentrations to xylene, and embedded in paraffin. A rotary microtome was used to produce 5 μm sections, which were mounted on Superfrost plus slides. The sections were dried and heated at 37° C. overnight and stored in dry place. Paraffin-embedded sections were deparaffinized in xylene and rehydrated in decreasing concentrations of ethanol. Then the sections stained with hematoxylin-eosin or subjected to immunochemical and Immunofluorescent assays [Liani-Leibson, K., I. Har-Vardi, and E. Priel, Inhibition of topoisomerase I by anti-cancer drug altered the endometrial cyclicity and receptivity. Curr Mol Med, 2014. 14(1): p. 141-50].

[2] = system: Steroidogenic acute regulatory protein (StAr); experiment: StAr relative mRNA levels by qRT-PCR in granulosa cells; assay type: cell-based, rat; conditions: 50 nM for 6 hours
Method: as §1, §2

COc1c(Br)cc(C(C)(c2cc(Br)c(OC)c(Br)c2)c2cc(Br)c(OC)c(Br)c2)cc1Br [Compound 70]
sperm count (ICR mice; irradiated mice, 9 and 30 days post irradiation): increased sperm count at 9 and 30 days post irradiation
sperm cells number from the epididymis (ICR mice; non-irradiated mice, 12 hrs post treatment, compared to DMSO): a significant increase
TERT relative mRNA levels [1]: increased expression in a dose-dependent fashion
number of defective sperm cells (head morphology) (sperm): reduction in the number of defective sperm cells
sperm counts (old mice (16 months old)): increased
sperm motility (old mice (16 months old)): increased
telomerase activity (TRAP) (telomerase): increased expression in a dose-dependent fashion; also recorded: further increased telomerase activity and expression in granulosa cells as compared to compound 79
LH expression (LH): increased LH production above untreated levels
CREM expression in testis (CREM): restored the expression of the spermatogenesis markers
DNA damage (γ-H2AX) in testis (γ-H2AX; compound only, without irradiation): did not cause DNA damage
expression levels of γ-H2AX in testis (γ-H2AX; irradiated mice (2.5 Gy)): a decrease in the expression levels of γ-H2AX
FSH expression (FSH): decreased FSH expression relative to untreated samples
ovarian tissue histopathology (H&E) (ovarian tissue): clearly rescues ovarian tissue exposed to radiation
ovary histology (follicles, granulosa cells) (mouse ovary; 6 mg/Kg single dose at met-estrus stage, 12 hours): more developed follicles (white arrow) and plurality of layers of granulosa cells (GC) around the oocytes
ovary histology (corpus luteum) (mouse ovary; 6 mg/Kg single dose at pro-estrus and estrus stages, 12 hrs): more corpus luteum (CL) than in the control group
expression of StAr [2]: increased expression of StAr
